Each structure is given as a SMILES string.

Common to all, as to assay type: cell-based
One experiment relates to KYM-1 cells. As to the kind of experiment: Combination assay (concentration matrix, resazurin, Loewe synergy) in KYM-1. The note with it: KYM-1, checkerboard layout, monolayer / non-adherent / semi-solid media. The procedure: (§1) Combinatorial anti-proliferative effects of Cpd. B (“B) in the tables below) and BGJ398 (“C” in the tables below) were measured in KYM-1, MG-63, and Hs-683 cells on 96-well-plates using the concentration matrix depicted below:
(§2) Cells were grown under three different conditions (see FIG. 7): Experiments labeled “monolayer” were conducted on regular tissue culture plates, allowing cells to adhere and eventually form a monolayer. Cells were seeded on 3 plates per experiment (triplicates) in standard growth media as described above at a density of 5000 per well. Six to eight wells on a separate plate were seeded to quantify the amount of viable cells at the point of compound addition. […] At the same time, viable cells on the separate plate mentioned above were quantified using a resazurin sodium salt dye reduction readout. […] Quantification of Synergy was done using the methods described in G. R. Zimmermann et al., Drug Discovery Today, Vol. 12, No. ½, 2007, pages 34 to 42, and especially J. Lehár et al., Nature Biotechnology Vol. 27, No. 7, 2009, pages 659 to 666, in short by iteratively calculating the Loewe additive response ILoewe (X, Y) at each dose matrix point from the single-agent response curves, and then summing the differences between ILoewe and the experimental data. […]
For orientation: Alamar Blue is a resazurin reagent that responds to reducing activity.

The next experiment has as its system RT-112 cells. As to the kind of experiment: RT-112 Dual Inhibition: reversal of rescue with selective inhibitors, CellTiter-Glo cell viability. The conditions noted are these: RT-112, rhHGF or rhNRG-1 250 ng/ml, 96 h; BGJ398 100 nM, Cpd. A/Cpd. B 500 nM, Lapatinib 1.5 μM; FIG. 5, FIG. 6. The procedure:
RT-112 Secretome screen: The basic format was identical to the MKN-45 secretome screen with slight modifications. RT-112 cells were plated in EMEM+10% in white, tissue-culture treated 384-well plates at 1000 cells/20 μl/well and allowed to attach overnight. Supernatant from library-transfected HEK293T/17 cells was transferred as described above for the MKN-45 secretome screen. Purified proteins rhNRG1-31 and rhTGFα were added as positive controls, at a final concentration of 150 ng/ml. Following addition of supernatants and purified protein controls, BGJ398 diluted in DMEM was added at 10 μl/well for a final assay concentration of 100 nM. Cell viability was measured after 72 hours using CellTiter-Glo as described above. (FIG. 2)
RT-112 Dual Inhibition: The format for the RT-112 dual inhibition experiment was similar to that described for MKN-45 with the following modifications. RT-112 cells were plated at 1000 cells/20 μl/well. Solutions of rhHGF and rhNRG-1 were added to achieve a final concentration of 250 ng/ml. Single and dual inhibition conditions were prepared as follows: BGJ398, Cpd. A, Cpd. B, Lapatinib, BGJ398 and Cpd. A, BGJ398 and Cpd. B, BGJ398 and Lapatinib. Final concentrations for each compound, whether single or combined, were as follows: 100nM for BGJ398, 500 nM for Cpd. A and Cpd. B, and 1.5 μM for Lapatinib. After 96 hours cell viability was measured by CellTiter-Glo as previously described. (FIG. 5, FIG. 6).
A general note: In ATP-based viability assays light output follows the ATP content of the culture.

For the next experiment, the system named is MG-63 cells. The experiment in a line: Combination assay (concentration matrix, resazurin, Loewe synergy) in MG-63. The note with it: MG-63, semi-solid media. The method, then: as §1, §2

Turning to `CCN1CCN(c2ccc(Nc3cc(N(C)C(=O)Nc4c(Cl)c(OC)cc(OC)c4Cl)ncn3)cc2)CC1` [BGJ398, 3-(2,6-dichloro-3,5-dimethoxy-phenyl)-1-{6-[4-(4-ethylpiperazin-1-yl)-phenylamino]-pyrimidin-4-yl}-1-methyl-urea], the growth suppression result in the experiment with KYM-1 cells was “partial growth suppression”. Moreover, the “activity on cell viability (reversal of rescue)” value in the experiment on RT-112 cells is reported as “active”. Besides, in the experiment on MG-63 cells, the growth inhibition entry is recorded as “strong growth inhibition”.
As to `CNC(=O)c1ccc(-c2cnc3ncc(Cc4ccc5ncccc5c4)n3n2)cc1F` [Cpd. B, 2-fluoro-N-methyl-4-[(7-quinolin-6-yl-methyl)-imidazo[1,2-b]triazin-2-yl]benzamide], the growth suppression entry in the experiment on KYM-1 cells was “no effect”. Further, the “activity on cell viability (reversal of rescue)” value in the experiment on RT-112 cells is on record as “not sufficient”.

(Values after patent US20150051210A1, “Tyrosine Kinase Inhibitor Combinations and their Use” (Novartis AG, priority 2012, published 2015).)
